Reference: patent US11524950B2, “Treatment of immune-related and inflammatory diseases” (Celgene Corporation, priority 2012, dated 2022)

What was measured:
IL-8 = assay: LPS-stimulated hPBMC cytokine production: IL-8; format: cell-based; details: Homo sapiens; LPS 1 ng/ml, 18 hours
Procedure: (§1) 50 ml human buffy coat was aliquoted 25 ml each into two 50 ml conical tubes and 25 ml sterile HBSS was added to each conical tube. The tubes were gently mixed by inverting. Fifteen ml of room temperature Ficoll-Paque Plus (GE Healthcare (location); cat #17-1440-02) was aliquoted into four 50 ml conical tubes. Then 25 ml of the Buffy coat/HBSS mixture was layered gently and slowly on top of the Ficoll. The samples were centrifuged at 450 rpm for 35 minutes. The top layered containing plasma was pipetted off and discarded. The interface containing mononuclear cells was transferred into two 50 ml conical tubes. Both conical tubes were filled to total volume of 50 ml with HBSS and centrifuged at 1200 rpm for 10 minutes. The cells were washed again in HBSS and spun at 1000 rpm for 10 minutes. Cell pellet was resuspended with 20 ml RPMI complete medium (RPMI/5% human sera/1× pen/strep/glut) and counted.
(§2) One hundred μl (2×10^6/ml) of hPBMCs were added to each well of a 96 well flat-bottom plate (final cell count=2×10^5/well) and incubated at 37° C. for 1 hour. […] compound was added to each test well and twenty μl medium containing 2.5% DMSO was added to each control well ([DMSO]final=0.25%) and plate was incubated for 1 hour at 37° C. Cells were then stimulated with […] 2.5 ng/ml LPS ([LPS]final=1 ng/ml) and incubated for 18 hours at 37° C.
(§3) 50 μl supernatant from each well was transferred into 3 new round-bottomed 96 well plates and stored at −20° C. for Luminex analysis. Duplicate wells were performed for each sample.
(§4) Supernatant samples were analyzed for cytokines in multiplex format according to the manufacturer's instructions (Millipore, Billerica, Ma 01821) using a Luminex IS100 instrument. IL-12 and GM-CSF analyses were done in a two-plex format using neat supernatants while all other cytokines were done in a multiplex format using supernatants diluted 1:20. Data analysis was performed using Upstate Beadview software. […] The IC50 were performed using GraphPad Prism v5.00. […]

IL-1β = assay: LPS-stimulated hPBMC cytokine production: IL-1β; format: cell-based; details: Homo sapiens; LPS 1 ng/ml, 18 hours
Procedure: as §1, §2, §3, §4

IL-10 = assay: LPS-stimulated hPBMC cytokine production: IL-10 enhancement; format: cell-based, human; details: at 0.1 μM
Procedure: as §1, §2, §3, §4

MCP-1 = assay: LPS-stimulated hPBMC cytokine production: MCP-1 enhancement; format: cell-based, human; details: at 0.1 μM
Procedure: as §1, §2, §3, §4

[1] = system: Human umbilical vascular endothelial cells; assay: Human umbilical vascular endothelial cells proliferation assay; format: cell-based; details: for IC50: Homo sapiens, Endothelial cell
Procedure: Human Umbilical Vascular Endothelial Cells Proliferation Assay: Human umbilical vascular endothelial cells were thawed and grown in EGM2 medium until passage 3 to 6 for all proliferation assays. Human umbilical vascular endothelial cells were trypsinized, washed with 20% FBS/M199 medium and plated with the same medium at 10^4 cells/100 μL per well to 96-well cell culture plates. The plates were incubated overnight at 37° C. to allow cells to adhere. The cells were then starved in 1% FBS/M199 medium for 18 hours after washing with the same medium 3 times. For optimization of the concentration of the growth factors in the HUVEC proliferation assay, 100 μL/well of the 2× serial diluted growth factors, starting at 100 ng/mL, were added to HUVECs in duplicate for 72 hours at 37° C. in a humidified cell culture incubator with 5% CO2. For analysis of test compounds, a serial dilution of the test compounds in 0.4% DMSO/1% FBS/M199 medium in duplicate was made from the 10 mM stock. Fifty microliters per well of the serially diluted test compounds (10, 1.0, 0.1, 0.01, 0.001, 0.0001, 0.00001 μM) were added to the cells for 1 to 2 hours at 37° C. The final DMSO concentration in the cells is 0.1%. Then 50 μL of 4× final concentration of relative growth factors was added to each well in duplicate for 72 hours at 37° C. in a humidified cell culture incubator with 5% CO2. Thymidine incorporation was measured by adding one microcurie of 3H-thymidine (Amersham) in 20 μL medium to each well and incubated at 37° C. in a humidified cell culture incubator with 5% CO2 for 5 to 6 hours. The cells were then trypsinized and harvested onto UniFilter GF/C filter plates (Perkin Elmer) by using the cell harvester (Tomtec). After the plates were air dried, 20 µL/well of Microscint 20 (Packard) was added then the plates were analyzed in TopCount NXT (Packard). Each well was counted for one minute. The experiments were performed in duplicate in each of 3 donors.
(§5) The percentage inhibition of cell proliferation, tube formation, migration, and invasion was calculated by subtracting the result for unstimulated DMSO control from test sample results, averaging all replicates, and normalizing to the growth factor-stimulated DMSO control (0% inhibition). The IC50 values were calculated by using GraphPad Prism 5.0.

[2] = system: Human umbilical vascular endothelial cells; assay: Human umbilical vascular endothelial cell invasion assay; format: cell-based; details: for IC50: Homo sapiens; for VEGF-, bFGF-, and HGF-induced HUVEC invasion: dose-dependent
Procedure: Human Umbilical Vascular Endothelial Cell Invasion Assay: In the HUVEC invasion assay, the concentration of human fibronectin is optimized to provide a suitable protein structure for adherent cells to attach to the membrane and allow free migration in response to an angiogenic stimulus (e.g. VEGF, bFGF, or HGF) in the lower chamber of the insertplate. HUVECs were starved in 0.1% BSA EBM2 medium for 6 hours after washing with the same medium 3 times. The cells were then trypsinized and centrifuged to remove the remaining trypsin. Then ˜0.5 to 1×10^6 cells in 125 μL/well and 125 μL of […] serially diluted compounds (10, 1, 0.1, 0.01, 0.001 μM) were added to the upper chamber of the BD Falcon 24-well and 96-well insert plates in duplicate and incubated for […]. (The plates contain a fluorescence blocking, microporous [3.0 μm pore size] PET membrane that has been evenly coated with human fibronectin.) Seven hundred fifty microliters of a 1.33×stock solution of VEGF (final concentration of 25 ng/mL), bFGF (final concentration of 10 ng/mL), or HGF (final concentration of 25 ng/mL) were then added to the lower chamber. The cells were incubated for 22±1 hours at 37° C. The migrated cells were stained with calcein AM at […] in HBSS containing 2% FBS, using 500 μL/well in 24-well plates and 200 μL/well in 96-well plates. The plates were incubated at 37° C. for 90 minutes and read in a fluorescence plate reader.
as §5

[3] = read-out: bFGF (10 ng/mL) IC50 Values (μM), bFGF-induced proliferation
[4] = HGF-induced proliferation, read-out: HGF (25 ng/mL) IC50 Values
[5] = VEGF-induced proliferation, read-out: VEGF (25 ng/mL) IC50 Values
[6] = Endothelial cell, HGF 25 ng/mL, read-out: HGF-induced invasion IC50 Values
[7] = Endothelial cell, VEGF 25 ng/mL, read-out: VEGF-induced invasion IC50 Values
[8] = Endothelial cell, bFGF 10 ng/mL, read-out: bFGF-induced invasion IC50 Values
[9] = HUVEC, growth factor not given, read-out: IC50 (HUVEC invasion)

Compound | IC50 (IL-8) [nM] | IC50 (IL-1β) [nM] | IL-10 Mean % of Control (IL-10) | MCP-1 Mean % of Control (MCP-1) | VEGF-, bFGF-, or HGF-induced HUVEC proliferation [1] | IC50 [1, 3] [µM] | IC50 [1, 4] [µM] | IC50 [1, 5] [µM] | concentrations with significant enhancement of proliferation ([1]; bFGF-treated HUVECs) [µM] | IC50 [2, 6] [nM] | IC50 [2, 7] [nM] | IC50 [2, 8] [nM] | IC50 [2, 9] [nM] | VEGF-, bFGF-, and HGF-induced HUVEC invasion [2] | concentrations with significant enhancement of proliferation ([1]; VEGF-treated HUVECs) [µM]
O=C1CCC(N2Cc3c(OCc4ccc(CN5CCOCC5)cc4)cccc3C2=O)C(=O)N1 (racemic) [Racemate, 3-[4-(4-morphlin-4-ylmethylbenzyloxy)-1-oxo-1,3-dihydro-isoindo-2-yl]piperidine-2,6-dione] | > 10000 | 0.85 | 371 % of control | 208 % of control | did not inhibit | 99 | 24 | > 100 | 0.01 to 1 | 590 | 0.14 | 0.42 | 0.4 | significantly inhibited | 
O=C1CC[C@@H](N2Cc3c(OCc4ccc(CN5CCOCC5)cc4)cccc3C2=O)C(=O)N1 [R-enantiomer, (R)-3-[4-(4-morphlin-4-ylmethylbenzyloxy)-1-oxo-1,3-dihydro-isoindo-2-yl]piperidine-2,6-dione] | > 10000 | 6.2 | 442 % of control | 223 % of control | did not inhibit | 76 | 38 | > 100 |  | 450 | < 0.1 | 13 | 13 | significantly inhibited | 
O=C1CC[C@H](N2Cc3c(OCc4ccc(CN5CCOCC5)cc4)cccc3C2=O)C(=O)N1 [Test compound, (S)-3-[4-(4-morphlin-4-ylmethylbenzyloxy)-1-oxo-1,3-dihydro-isoindo-2-yl]piperidine-2,6-dione] | > 10000 | 0.46 | 379 % of control | 233 % of control | did not inhibit | 52 | 51 | > 100 |  | 19 | < 0.1 | < 0.1 | < 0.1 | significantly inhibited | 1 to 10
